According to patent publication US20220401514A1, “ANTIMICROBIAL, BACTERIOPHAGE-DERIVED POLYPEPTIDES AND THEIR USE AGAINST GRAM-NEGATIVE AND ACID-FAST BACTERIA” (CONTRAFECT CORPORATION, priority 2019, published 2022):
Where two headings read alike, the source gives them in different places.

What was measured:
M. scrofulaceum = test: 45 hr MIC against M. scrofulaceum (NTM); type: cell-based, Mycobacterium scrofulaceum; settings: M. scrofulaceum Prissick and Masson ATCC 19981
S. maltophilia = test: MIC against S. maltophilia isolates; type: cell-based, Stenotrophomonas maltophilia
Outline: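 MIC in μg/mL for Chp peptides across several S. maltophilia isolates, n denoting the number of isolates tested.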

[1] = test system: Pseudomonas aeruginosa, Escherichia coli, Enterobacter cloacae, Klebsiella pneumoniae, and Acinetobacter baumannii; test: MIC against a range of Gram-negative organisms (statements covering several species); type: cell-based; settings: Tables 40-44 isolates
Outline: (§1)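 Medium: CAA with added human serum. Peptides tested for minimal inhibitory concentration against each strain.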

Klebsiella pneumoniae [2] = test: microbe, parasite or virus in culture; type: cell-based; settings: CAA without human serum
Escherichia coli = test: microbe, parasite or virus in culture; type: cell-based
Outline: as §1

Enterobacter cloacae = test: microbe, parasite or virus in culture; type: cell-based
Outline: as §1

[3] = test system: carbapenem-resistant bacterial strains; test: organism not typed; type: cell-based
From the text: (§2) Determination of Minimal Inhibitory Concentrations (MIC).

[4] = Stability assessment in 100% CAA; type: in vitro ADME; parameters: unit not given beside the values
Experimental: Stability was assessed after incubation in 100% human serum at 37° C. after 10 minutes, 1 hour, and 2 hours.
Stability assessment was further conducted in 100% CAA and rabbit serum using the same methodology discussed above.

[5] = test system: P. aeruginosa strain CFS-1292; test: MIC in presence of divalent cations (calcium chloride, magnesium sulfate); type: cell-based, Pseudomonas aeruginosa
Experimental: Next, Chp peptides were evaluated in the presence of different divalent cations. […]; (2) in the presence of 2 mM calcium chloride alone; (3) in the presence of 1 mM magnesium sulfate alone; and (4) in the presence of both 2 mM calcium chloride and 1 mM magnesium sulfate. […]

[6] = test system: P. aeruginosa strain CFS-1292; test: MIC in presence of mouse, rat, rabbit and human serum ([…] each); type: cell-based, Pseudomonas aeruginosa; settings: P. aeruginosa CFS-1292
Experimental: The activity of several Chp peptides against P. aeruginosa strain CFS-1292 in animal serum was evaluated. […] Rat, mouse, and rabbit serum were all obtained from pooled gender samples.

[7] = test system: Mycobacterium tuberculosis strains
Experimental: MIC values for various Chp peptides were determined using the CLSI method for broth microdilution in 96-well microtiter format.
Next, MIC values for various Chp peptides were determined using the CLSI method above for broth microdilution in 96-well microtiter format for two different Mycobacterium tuberculosis strains. The MIC was determined as explained above for the NTM strains.

M. avium = test: 45 hr MIC against M. avium (NTM); type: cell-based, Mycobacterium avium; settings: M. avium Chester ATCC 700898
Acinetobacter baumannii = test: microbe, parasite or virus in culture; type: cell-based
M. intracellulare = test: 45 hr MIC against M. intracellulare (NTM); type: cell-based, Mycobacterium intracellulare; settings: M. intracellulare (Cuttino and McCabe) Runyon ATCC 13950
Klebsiella pneumoniae [8] = type: cell-based
Experimental: as §2
Additional MIC testing was performed for several peptides against the ESKAPE pathogens Escherichia coli, Enterobacter cloacae, Klebsiella pneumoniae, and Acinetobacter baumannii, in CAA supplemented with human serum (Table D).

Pseudomonas aeruginosa = test: microbe, parasite or virus in culture; type: cell-based; settings: for MIC: CAA without human serum
[9] = test system: carbapenem-resistant P. aeruginosa clinical isolate CFS-1292; test: MIC by modified CLSI broth microdilution against P. aeruginosa CFS-1292 (CAA, CAA + human serum); type: cell-based, Pseudomonas aeruginosa
[10] = test system: M. kansasii Hauduroy ATCC 12478; test: 45 hr MIC against M. kansasii (NTM), Mueller Hinton broth; type: cell-based, Mycobacterium kansasii
[11] = test system: P. aeruginosa strain CFS-1292; test: MIC at pH 6, pH 7 and pH 8; type: cell-based, Pseudomonas aeruginosa
Experimental: The Chp peptides were further evaluated at varying pH levels. The MIC values were determined at pH 6, pH 7, and pH 8 for 18 different Chp peptides against P. aeruginosa strain CFS-1292. […]

[12] = S. maltophilia isolates (n per peptide in table)
[13] = E. coli isolates (n per peptide in table)
[14] = E. cloacae isolates (n per peptide in table)
[15] = A. baumannii isolates (n per peptide in table)
[16] = K. pneumoniae isolates (n per peptide in table)
[17] = P. aeruginosa isolates (n per peptide in table)

MRLKMARRRYRLPRRRSRRLFSRTALRMHPRNRLRRIMRGGIRF [Chp2]
45 hr MIC (M. scrofulaceum): 0.5 µg/mL | MIC50 (S. maltophilia; [12]): 0.5 µg/mL | MIC100 (S. maltophilia; [12]): 1 µg/mL | MIC Range (S. maltophilia; [12]): 0.5 to 1 µg/mL | activity against S. maltophilia (S. maltophilia; Table 45 isolates): active | activity (good = MIC100 of ≤4) against all of P. aeruginosa, K. pneumoniae, A. baumannii, E. cloacae, and E. coli [1]: good activity | MIC (Klebsiella pneumoniae [2]; Klebsiella pneumoniae (ATCC 10031, MIC control strain), RSC 814): 4 µg/mL | MIC (Klebsiella pneumoniae [2]; Klebsiella pneumoniae (g2-3 HM35K), RSC 1138): 4 µg/mL | MIC (Klebsiella pneumoniae [2]; Klebsiella sp. (HM-44; colon, Crohn's disease), RSC 1139): 2 µg/mL | MIC (Klebsiella pneumoniae [2]; Klebsiella spp. (HM-223; gut of Crohn's disease patient), RSC 1131): 4 µg/mL | MIC (Escherichia coli; E. coli (ATCC 25922, MIC control strain), RSC 813, CAA without human serum): 2 µg/mL | MIC (Escherichia coli; E. coli (HM346, colon, Crohn's disease), RSC 1212, CAA without human serum): 2 µg/mL | MIC50 (Escherichia coli; [13]): 0.5 µg/mL | MIC100 (Escherichia coli; [13]): 2 µg/mL | MIC Range (Escherichia coli; [13]): 0.25 to 2 µg/mL | MIC (Escherichia coli; Escherichia coli ATCC 25922, CAA supplemented with human serum): 1 µg/mL | MIC50 (Enterobacter cloacae; [14]): 0.5 µg/mL | MIC100 (Enterobacter cloacae; [14]): 1 µg/mL | MIC Range (Enterobacter cloacae; [14]): 0.125 to 1 µg/mL | MIC (Enterobacter cloacae; Enterobacter cloacae (ATCC 13047, MIC control strain), RSC 1240, CAA without human serum): 4 µg/mL | MIC (Enterobacter cloacae; Enterobacter cloacae ATCC 13047, CAA supplemented with human serum): 1 µg/mL | MIC ([3]; carbapenem-resistant isolate PA19): 0.5 µg/mL | MIC ([3]; carbapenem-resistant isolate PA20): 1 µg/mL | MIC ([3]; carbapenem-resistant isolate PA21): 1 µg/mL | MIC ([3]; carbapenem-resistant isolate PA22): 1 µg/mL | MIC ([3]; carbapenem-resistant isolate PA23): 1 µg/mL | MIC ([3]; carbapenem-resistant isolate PA24): 1 µg/mL | MIC ([3]; carbapenem-resistant isolate WLC-452): 0.5 µg/mL | MIC (100% CAA) [4]: 0.25 | MIC ([5]; CAA media + 1 mM MgSO4): 0.5 µg/mL | MIC ([5]; CAA media + 2 mM CaCl2): 0.25 µg/mL | MIC ([5]; CAA media + + 1 mM MgSO4): 0.25 µg/mL | MIC ([5]; CAA media alone): 0.5 µg/mL | MIC BALB/C Mouse Serum ([6]; BALB/C mouse serum […]): 32 µg/mL | MIC CAA ([6]; CAA): 0.5 µg/mL | MIC New Zealand White Rabbit Serum ([6]; New Zealand White rabbit serum […]): 2 µg/mL | MIC Sprague Dawley Rat Serum ([6]; Sprague Dawley rat serum […]): 2 µg/mL | MIC Human Serum ([6]; human serum […]): 0.5 µg/mL | MIC ([7]; Mycobacterium tuberculosis (Zopf) Lehmann and Neumann ATCC 25177): 16 µg/mL | MIC ([7]; Mycobacterium tuberculosis (Zopf) Lehmann and Neumann ATCC 35817): 16 µg/mL | 45 hr MIC (M. avium): 1 µg/mL | MIC50 (Acinetobacter baumannii; [15]): 0.5 µg/mL | MIC100 (Acinetobacter baumannii; [15]): 0.5 µg/mL | MIC Range (Acinetobacter baumannii; [15]): 0.25 to 1 µg/mL | MIC (Acinetobacter baumannii; Acinetobacter baumannii (clinical isolate HSS), RSC 30, CAA without human serum): 2 µg/mL | MIC (Acinetobacter baumannii; Acinetobacter baumannii (clinical isolate HSS), RSC 32, CAA without human serum): 2 µg/mL | MIC (Acinetobacter baumannii; Acinetobacter baumannii ATCC BAA 747, CAA supplemented with human serum): 0.125 µg/mL | 45 hr MIC (M. intracellulare): 0.5 µg/mL | MIC50 (Klebsiella pneumoniae [8]; [16]): 0.5 µg/mL | MIC100 (Klebsiella pneumoniae [8]; [16]): 1 µg/mL | MIC Range (Klebsiella pneumoniae [8]; [16]): 0.125 to 1 µg/mL | MIC (Klebsiella pneumoniae [8]; Klebsiella pneumoniae HM-44, CAA supplemented with human serum): 0.125 µg/mL | MIC (Pseudomonas aeruginosa; P. aeruginosa 453 (Human clinical isolate, HSS), RSC 1292): 4 µg/mL | MIC (Pseudomonas aeruginosa; P. aeruginosa (ATCC 14213, human hip wound), RSC 1111): 4 µg/mL | MIC (Pseudomonas aeruginosa; P. aeruginosa (ATCC 15152, abscess in middle ear), RSC 1110): 4 µg/mL | MIC (Pseudomonas aeruginosa; P. aeruginosa (ATCC 15692, infected wound), RSC 489): 4 µg/mL | MIC (Pseudomonas aeruginosa; P. aeruginosa (ATCC 15692, infected wound), RSC 1115): 4 µg/mL | MIC (Pseudomonas aeruginosa; P. aeruginosa (ATCC 17646, human liver abscess), RSC 1109): 4 µg/mL | MIC (Pseudomonas aeruginosa; P. aeruginosa (ATCC 19142, tracheobronchial secretion), RSC 1108): 2 µg/mL | MIC (Pseudomonas aeruginosa; P. aeruginosa (ATCC 25102, bacteriophage host), RSC 1114): 4 µg/mL | MIC (Pseudomonas aeruginosa; P. aeruginosa (ATCC 27853, MIC control strain), RSC 815): 4 µg/mL | MIC (Pseudomonas aeruginosa; P. aeruginosa (ATCC BAA-27, lab strain), RSC 1113): 4 µg/mL | MIC (Pseudomonas aeruginosa; P. aeruginosa (PAO1, alternate source, HER1018), RSC 490): 4 µg/mL | MIC50 (Pseudomonas aeruginosa; [17]): 1 µg/mL | MIC100 (Pseudomonas aeruginosa; [17]): 1 µg/mL | MIC Range (Pseudomonas aeruginosa; [17]): 0.25 to 1 µg/mL | MIC (μg/mL) against CFS-1292 in 100% CAA (1st run/2nd run) ([9]; 100% CAA, 1st run or single value): 0.5 µg/mL | MIC (μg/mL) against CFS-1292 in CAA + […] human serum ([9]; CAA + […] human serum): 0.5 µg/mL | 45 hr MIC [10]: 2 µg/mL | MIC ([11]; CAA media (pH 7)): 0.25 µg/mL | MIC ([11]; pH 6): 0.25 µg/mL | MIC ([11]; pH 7): 0.5 µg/mL | MIC ([11]; pH 8): 0.5 µg/mL
